Measurements published in ChEMBL document CHEMBL5442219.

How the values were obtained:
Conditions in all cases: Compound concentration 10 µM
[1] = biological target: 5-hydroxytryptamine receptor 2B (Homo sapiens) (UniProt P41595)
[2] = biological target: T1, Muscarinic acetylcholine receptor M1 (Homo sapiens) (UniProt P11229)
T1 sequence (whole entry): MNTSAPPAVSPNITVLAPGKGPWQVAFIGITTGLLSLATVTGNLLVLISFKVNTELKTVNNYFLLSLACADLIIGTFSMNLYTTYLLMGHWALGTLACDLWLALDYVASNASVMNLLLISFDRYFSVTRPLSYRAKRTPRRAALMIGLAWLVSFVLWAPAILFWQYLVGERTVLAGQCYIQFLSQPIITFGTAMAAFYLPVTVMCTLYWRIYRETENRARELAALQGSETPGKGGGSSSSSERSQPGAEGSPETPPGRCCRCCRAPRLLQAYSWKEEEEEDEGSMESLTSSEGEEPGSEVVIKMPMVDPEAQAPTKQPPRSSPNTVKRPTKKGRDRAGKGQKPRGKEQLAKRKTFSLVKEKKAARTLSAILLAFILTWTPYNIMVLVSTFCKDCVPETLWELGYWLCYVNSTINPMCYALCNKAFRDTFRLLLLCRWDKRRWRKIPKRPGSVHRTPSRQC

[3] = biological target: T2, Alpha-2C adrenergic receptor (Homo sapiens) (UniProt P18825)
T2 sequence (whole entry): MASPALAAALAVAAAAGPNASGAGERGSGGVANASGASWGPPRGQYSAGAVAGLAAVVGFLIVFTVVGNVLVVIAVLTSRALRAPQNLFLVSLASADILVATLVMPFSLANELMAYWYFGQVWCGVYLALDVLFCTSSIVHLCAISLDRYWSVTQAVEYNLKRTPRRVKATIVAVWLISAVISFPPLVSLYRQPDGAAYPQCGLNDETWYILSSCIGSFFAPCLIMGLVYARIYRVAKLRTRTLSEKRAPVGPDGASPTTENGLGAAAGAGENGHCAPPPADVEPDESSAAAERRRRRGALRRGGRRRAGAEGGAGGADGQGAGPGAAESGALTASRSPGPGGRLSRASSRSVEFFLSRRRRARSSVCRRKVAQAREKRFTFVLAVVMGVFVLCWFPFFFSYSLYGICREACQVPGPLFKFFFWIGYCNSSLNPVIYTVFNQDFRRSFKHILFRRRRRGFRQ

[4] = biological target: Histamine H3 receptor (Homo sapiens) (UniProt Q9Y5N1)
Sequence of Histamine H3 receptor (Homo sapiens) (Q9Y5N1 whole entry): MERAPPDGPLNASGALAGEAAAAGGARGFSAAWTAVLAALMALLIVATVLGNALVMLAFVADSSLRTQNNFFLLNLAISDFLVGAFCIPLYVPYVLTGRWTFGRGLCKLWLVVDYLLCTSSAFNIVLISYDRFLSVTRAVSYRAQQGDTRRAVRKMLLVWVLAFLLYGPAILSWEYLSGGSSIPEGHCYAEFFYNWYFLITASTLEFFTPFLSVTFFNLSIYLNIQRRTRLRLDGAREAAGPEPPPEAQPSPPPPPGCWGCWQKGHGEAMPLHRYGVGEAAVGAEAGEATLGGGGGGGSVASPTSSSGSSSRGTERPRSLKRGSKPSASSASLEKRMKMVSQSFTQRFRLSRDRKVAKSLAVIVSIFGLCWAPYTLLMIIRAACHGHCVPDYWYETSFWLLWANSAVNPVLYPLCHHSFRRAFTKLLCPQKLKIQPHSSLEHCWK

[5] = biological target: Mu-type opioid receptor (Homo sapiens) (UniProt P35372)
Sequence of Mu-type opioid receptor (Homo sapiens) (P35372 whole entry): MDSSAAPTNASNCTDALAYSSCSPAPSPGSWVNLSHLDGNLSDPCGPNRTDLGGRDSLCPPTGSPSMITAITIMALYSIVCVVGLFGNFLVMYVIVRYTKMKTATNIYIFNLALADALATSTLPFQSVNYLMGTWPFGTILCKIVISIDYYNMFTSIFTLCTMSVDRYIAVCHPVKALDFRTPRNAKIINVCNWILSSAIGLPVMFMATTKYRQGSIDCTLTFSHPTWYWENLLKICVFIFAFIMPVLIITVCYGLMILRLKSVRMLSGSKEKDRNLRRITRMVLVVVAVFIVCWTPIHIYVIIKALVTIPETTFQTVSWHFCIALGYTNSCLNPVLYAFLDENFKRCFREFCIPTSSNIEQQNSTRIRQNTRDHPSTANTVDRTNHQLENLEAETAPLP

[6] = biological target: T3, Alpha-1D adrenergic receptor (Homo sapiens) (UniProt P25100)
T3 sequence (whole entry): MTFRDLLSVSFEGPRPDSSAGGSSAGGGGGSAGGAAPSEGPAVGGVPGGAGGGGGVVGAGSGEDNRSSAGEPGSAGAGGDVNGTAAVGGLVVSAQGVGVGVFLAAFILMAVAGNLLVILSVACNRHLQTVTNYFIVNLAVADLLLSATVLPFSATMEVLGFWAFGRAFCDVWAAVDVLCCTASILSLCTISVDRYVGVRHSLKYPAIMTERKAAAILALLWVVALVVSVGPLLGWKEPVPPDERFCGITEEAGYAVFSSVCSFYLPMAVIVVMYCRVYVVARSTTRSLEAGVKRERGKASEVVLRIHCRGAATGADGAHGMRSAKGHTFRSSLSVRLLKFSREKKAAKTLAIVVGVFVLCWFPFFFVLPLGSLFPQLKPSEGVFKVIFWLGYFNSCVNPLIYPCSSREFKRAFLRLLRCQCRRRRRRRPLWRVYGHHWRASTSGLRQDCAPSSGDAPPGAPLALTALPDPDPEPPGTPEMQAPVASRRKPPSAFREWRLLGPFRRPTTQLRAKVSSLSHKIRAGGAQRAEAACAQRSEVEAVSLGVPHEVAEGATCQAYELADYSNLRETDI

[7] = biological target: 5-hydroxytryptamine receptor 1D (Homo sapiens) (UniProt P28221)
Sequence of 5-hydroxytryptamine receptor 1D (Homo sapiens) (P28221 whole entry): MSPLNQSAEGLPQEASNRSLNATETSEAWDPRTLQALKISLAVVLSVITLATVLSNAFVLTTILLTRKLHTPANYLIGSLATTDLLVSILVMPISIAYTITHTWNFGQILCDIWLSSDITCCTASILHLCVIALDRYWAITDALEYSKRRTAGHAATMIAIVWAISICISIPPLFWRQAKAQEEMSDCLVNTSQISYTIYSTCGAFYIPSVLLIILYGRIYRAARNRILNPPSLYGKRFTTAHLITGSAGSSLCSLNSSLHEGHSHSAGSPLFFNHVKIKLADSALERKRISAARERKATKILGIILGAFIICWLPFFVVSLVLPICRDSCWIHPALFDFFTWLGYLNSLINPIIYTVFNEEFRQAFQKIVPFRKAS

[8] = biological target: Histamine H1 receptor (Homo sapiens) (UniProt P35367)
Sequence of Histamine H1 receptor (Homo sapiens) (P35367 whole entry): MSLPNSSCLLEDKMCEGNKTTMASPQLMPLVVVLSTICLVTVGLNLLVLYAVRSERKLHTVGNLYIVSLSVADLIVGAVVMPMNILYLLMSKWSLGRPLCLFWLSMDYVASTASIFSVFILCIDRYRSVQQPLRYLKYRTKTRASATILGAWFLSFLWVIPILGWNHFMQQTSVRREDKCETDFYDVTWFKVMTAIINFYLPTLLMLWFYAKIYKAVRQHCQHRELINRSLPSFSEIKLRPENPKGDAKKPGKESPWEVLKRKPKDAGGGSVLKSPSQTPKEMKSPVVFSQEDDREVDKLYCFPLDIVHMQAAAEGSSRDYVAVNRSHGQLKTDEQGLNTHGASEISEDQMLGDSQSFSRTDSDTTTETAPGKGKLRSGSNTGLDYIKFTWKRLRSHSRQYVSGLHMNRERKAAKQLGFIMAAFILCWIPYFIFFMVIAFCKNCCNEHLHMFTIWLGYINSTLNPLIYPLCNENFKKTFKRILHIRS

[9] = biological target: T4, Alpha-2A adrenergic receptor (Homo sapiens) (UniProt P08913)
T4 sequence (whole entry): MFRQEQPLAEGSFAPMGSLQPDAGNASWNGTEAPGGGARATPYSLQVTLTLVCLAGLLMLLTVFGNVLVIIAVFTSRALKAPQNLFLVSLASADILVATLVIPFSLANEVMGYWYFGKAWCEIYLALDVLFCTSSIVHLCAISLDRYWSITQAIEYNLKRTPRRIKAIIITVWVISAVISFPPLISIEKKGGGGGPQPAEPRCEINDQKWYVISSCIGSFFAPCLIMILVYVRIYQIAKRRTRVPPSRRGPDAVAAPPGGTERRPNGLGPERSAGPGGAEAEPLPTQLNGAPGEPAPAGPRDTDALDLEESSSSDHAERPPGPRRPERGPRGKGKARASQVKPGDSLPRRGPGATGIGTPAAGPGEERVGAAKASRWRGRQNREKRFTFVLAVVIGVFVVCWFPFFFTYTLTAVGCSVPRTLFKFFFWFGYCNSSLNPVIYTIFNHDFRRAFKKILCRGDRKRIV

[10] = biological target: D(1B) dopamine receptor (Homo sapiens) (UniProt P21918)
Sequence of D(1B) dopamine receptor (Homo sapiens) (P21918 whole entry): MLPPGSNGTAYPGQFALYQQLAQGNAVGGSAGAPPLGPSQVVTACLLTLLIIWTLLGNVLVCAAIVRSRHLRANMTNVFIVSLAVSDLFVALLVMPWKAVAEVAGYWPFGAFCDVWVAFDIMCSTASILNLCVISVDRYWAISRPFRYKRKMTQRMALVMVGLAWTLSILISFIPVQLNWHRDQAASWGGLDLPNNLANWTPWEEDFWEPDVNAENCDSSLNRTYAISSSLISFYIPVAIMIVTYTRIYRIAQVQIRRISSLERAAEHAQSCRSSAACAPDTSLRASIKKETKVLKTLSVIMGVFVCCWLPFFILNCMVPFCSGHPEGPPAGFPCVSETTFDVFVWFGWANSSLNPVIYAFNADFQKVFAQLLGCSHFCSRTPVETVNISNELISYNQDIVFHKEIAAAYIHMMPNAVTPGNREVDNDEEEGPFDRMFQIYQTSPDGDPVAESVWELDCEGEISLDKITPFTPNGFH

[11] = biological target: Histamine H4 receptor (Homo sapiens) (UniProt Q9H3N8)
Sequence of Histamine H4 receptor (Homo sapiens) (Q9H3N8 whole entry): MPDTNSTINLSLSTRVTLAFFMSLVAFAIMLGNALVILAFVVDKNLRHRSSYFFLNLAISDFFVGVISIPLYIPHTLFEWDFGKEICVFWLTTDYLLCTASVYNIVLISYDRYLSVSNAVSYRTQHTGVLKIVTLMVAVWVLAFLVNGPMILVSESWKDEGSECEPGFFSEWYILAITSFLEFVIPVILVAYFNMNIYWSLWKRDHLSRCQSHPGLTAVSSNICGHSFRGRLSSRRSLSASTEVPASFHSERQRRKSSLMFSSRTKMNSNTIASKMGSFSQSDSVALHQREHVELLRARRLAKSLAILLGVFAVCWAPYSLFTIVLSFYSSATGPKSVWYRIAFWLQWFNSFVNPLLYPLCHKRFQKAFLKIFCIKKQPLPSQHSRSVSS

[12] = biological target: Histamine H2 receptor (Homo sapiens) (UniProt P25021)
Sequence of Histamine H2 receptor (Homo sapiens) (P25021 whole entry): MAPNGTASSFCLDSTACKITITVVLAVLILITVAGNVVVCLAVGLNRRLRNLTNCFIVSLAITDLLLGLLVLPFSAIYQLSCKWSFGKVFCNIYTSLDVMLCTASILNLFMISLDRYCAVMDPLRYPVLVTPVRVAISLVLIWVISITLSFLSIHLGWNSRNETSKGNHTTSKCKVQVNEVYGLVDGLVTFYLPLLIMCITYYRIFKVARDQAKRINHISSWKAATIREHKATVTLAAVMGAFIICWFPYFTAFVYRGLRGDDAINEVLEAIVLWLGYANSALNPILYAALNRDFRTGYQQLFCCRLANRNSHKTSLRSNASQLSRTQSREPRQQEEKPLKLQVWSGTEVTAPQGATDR

[13] = biological target: Beta-3 adrenergic receptor (Homo sapiens) (UniProt P13945)
Sequence of Beta-3 adrenergic receptor (Homo sapiens) (P13945 whole entry, looked up): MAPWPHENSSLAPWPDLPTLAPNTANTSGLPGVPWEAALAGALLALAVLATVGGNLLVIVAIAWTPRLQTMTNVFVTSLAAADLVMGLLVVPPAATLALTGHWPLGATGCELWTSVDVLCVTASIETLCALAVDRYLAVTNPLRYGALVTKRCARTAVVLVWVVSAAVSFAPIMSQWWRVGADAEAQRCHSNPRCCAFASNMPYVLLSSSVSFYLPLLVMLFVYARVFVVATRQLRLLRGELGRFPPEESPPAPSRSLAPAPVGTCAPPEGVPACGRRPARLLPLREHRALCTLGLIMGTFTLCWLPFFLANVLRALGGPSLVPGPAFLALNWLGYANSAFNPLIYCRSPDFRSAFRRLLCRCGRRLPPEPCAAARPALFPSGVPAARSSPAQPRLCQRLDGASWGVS

Sequence of 5-hydroxytryptamine receptor 2B (Homo sapiens) (P41595 whole entry): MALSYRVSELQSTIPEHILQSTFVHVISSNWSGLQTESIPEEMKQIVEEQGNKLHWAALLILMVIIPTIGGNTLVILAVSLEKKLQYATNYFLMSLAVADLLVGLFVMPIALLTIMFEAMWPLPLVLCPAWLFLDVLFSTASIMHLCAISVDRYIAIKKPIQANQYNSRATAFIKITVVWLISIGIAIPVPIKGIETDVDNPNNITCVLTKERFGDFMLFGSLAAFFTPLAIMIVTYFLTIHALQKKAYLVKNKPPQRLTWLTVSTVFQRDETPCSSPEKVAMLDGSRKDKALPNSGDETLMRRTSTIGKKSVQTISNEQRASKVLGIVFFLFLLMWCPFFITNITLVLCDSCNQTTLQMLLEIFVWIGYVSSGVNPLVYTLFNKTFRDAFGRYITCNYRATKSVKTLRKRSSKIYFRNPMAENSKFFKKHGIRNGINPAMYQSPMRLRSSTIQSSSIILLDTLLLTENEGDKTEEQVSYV

Structure (SMILES): CC(C)NCC(O)COc1ccc(CCOCC2CC2)cc1 (stereo unspecified)
- inhibition [1]: 32.1%
- inhibition [2]: 0.88%
- inhibition [3]: 2.92%
- inhibition [4]: 28.3%
- inhibition [5]: 3.09%
- inhibition [6]: 5.75%
- inhibition [7]: 5.07%
- inhibition [8]: 1.05%
- inhibition [9]: 20.5%
- inhibition [10]: 6.71%

Structure (SMILES): Cc1nc(-c2ccc(-c3ccc(C(=O)N4CCc5cc6c(cc54)C4(CCN(C)CC4)CO6)cc3)c(C)c2)no1
- inhibition [1]: 88.9%
- inhibition [2]: 66.4%
- inhibition [3]: 38%
- inhibition [4]: 35.6%
- inhibition [5]: -2.77%
- inhibition [6]: 66.3%
- inhibition [7]: 90.9%
- inhibition [11]: 20.5%
- inhibition [8]: 33.8%
- inhibition [9]: 73%
- inhibition [10]: 57.1%

Structure (SMILES): CN1C(=O)[C@@H](NC(=O)c2cc3ccccc3[nH]2)N=C(c2ccccc2)c2ccccc21
- inhibition [1]: 78.4%
- inhibition [2]: 5.19%
- inhibition [3]: -0.17%
- inhibition [4]: 5.34%
- inhibition [5]: 5.76%
- inhibition [6]: -0.46%
- inhibition [7]: 23.2%
- inhibition [11]: -4.47%
- inhibition [8]: -6.55%
- inhibition [9]: 11.2%
- inhibition [10]: -2.85%

Structure (SMILES): O=C(Nc1ccc(Cl)cc1)Nc1cccc(-c2cccc(N3CCCC3)n2)c1
- inhibition [1]: 10.6%
- inhibition [2]: 9.22%
- inhibition [3]: -1.24%
- inhibition [5]: -5.02%
- inhibition [6]: 0.2%
- inhibition [11]: -1.99%
- inhibition [8]: -4.85%
- inhibition [12]: 20%
- inhibition [9]: 3.23%

Structure (SMILES): CCN(CC)CCCCC1CCN(CC(=O)N2c3ccccc3C(=O)Nc3cccnc32)CC1
- inhibition [1]: 13.9%
- inhibition [2]: 89.1%
- inhibition [3]: -6.76%
- inhibition [4]: 43%
- inhibition [5]: 10.4%
- inhibition [6]: -4.13%
- inhibition [7]: 33.2%
- inhibition [11]: 21.4%
- inhibition [8]: -7.08%
- inhibition [9]: 12.9%
- inhibition [10]: 82.5%

Structure (SMILES): S=C(NCCCc1c[nH]cn1)NCCCN(Cc1ccc(Cl)c(Cl)c1)c1ccc(Br)cn1
- inhibition [1]: 94.5%
- inhibition [2]: 60.7%
- inhibition [3]: 101%
- inhibition [4]: 100%
- inhibition [5]: 28.7%
- inhibition [6]: 65.9%
- inhibition [7]: 149%
- inhibition [11]: 99.3%
- inhibition [8]: 83%
- inhibition [9]: 97.5%
- inhibition [10]: 51.4%

Structure (SMILES): O=C(O)CC/C=C\C[C@@H]1CO[C@H](c2ccccc2Cl)O[C@@H]1c1ccccc1O
- inhibition [13]: 29.5%
- inhibition [3]: -7.17%
- inhibition [4]: 6.14%
- inhibition [5]: 8.82%
- inhibition [8]: 33.4%
- inhibition [12]: 31.1%
- inhibition [10]: -4.01%

Structure (SMILES): N#Cc1c(N)nc(SCC(N)=O)c(C#N)c1-c1ccc(OCC2CC2)cc1
- inhibition [1]: 12.7%
- inhibition [2]: 1.45%
- inhibition [4]: -3.51%
- inhibition [5]: -0.63%
- inhibition [6]: 0.73%
- inhibition [11]: 14.3%
- inhibition [8]: 22.6%
- inhibition [12]: 41.5%
- inhibition [9]: -1.71%

Structure (SMILES): CN(C(=O)Cc1ccc(Cl)c(Cl)c1)C(CN1CCCC1)c1cccc(OCC(=O)O)c1 (stereo unspecified)
- inhibition [1]: 14.7%
- inhibition [13]: -9.83%
- inhibition [3]: 3.8%
- inhibition [4]: -7.51%
- inhibition [5]: 87.5%
- inhibition [6]: 5.15%
- inhibition [11]: 13.7%
- inhibition [8]: 47.4%
- inhibition [12]: 28.1%
- inhibition [9]: 12.2%

Structure (SMILES): Cc1ccccc1C(=O)Nc1ccc(C(=O)N2CCCC(O)c3cc(Cl)ccc32)c(C)c1 (stereo unspecified)
- inhibition [1]: 74.7%
- inhibition [2]: -6.43%
- inhibition [3]: 9.34%
- inhibition [4]: 6.39%
- inhibition [5]: 53.2%
- inhibition [6]: 12.7%
- inhibition [7]: 88.5%
- inhibition [11]: 3.66%
- inhibition [8]: 70.8%
- inhibition [9]: 33.8%
- inhibition [10]: 8.81%

Structure (SMILES): C[C@@H](N)Cc1c[nH]cn1
- inhibition [1]: 35.1%
- inhibition [2]: 2.87%
- inhibition [3]: 10.9%
- inhibition [4]: 103%
- inhibition [7]: 6.42%
- inhibition [11]: 95.7%
- inhibition [8]: 8.33%
- inhibition [9]: 8.47%
- inhibition [10]: 24.8%

Structure (SMILES): CCc1cc(C(C)=O)c(O)cc1OCCCCCC(C)(C)c1nn[nH]n1
- inhibition [1]: 64.2%
- inhibition [13]: 0.68%
- inhibition [3]: 12%
- inhibition [4]: 0.93%
- inhibition [5]: 8.2%
- inhibition [6]: 19.5%
- inhibition [11]: 34.3%
- inhibition [8]: 17.1%
- inhibition [12]: 6.38%
- inhibition [9]: 14%

Structure (SMILES): COc1ccc(C2(O)OC(=O)C(c3ccc4c(c3)OCO4)=C2Cc2cc(OC)c(OC)c(OC)c2)cc1 (stereo unspecified)
- inhibition [2]: -8.77%
- inhibition [4]: -8.58%
- inhibition [5]: -4.54%
- inhibition [6]: 11%
- inhibition [7]: 21.7%
- inhibition [11]: 14.6%
- inhibition [8]: 11.8%
- inhibition [12]: 24.4%
- inhibition [9]: 4.57%

Structure (SMILES): COC(=O)C1=C(C)NC(C)=C(C(=O)OCCCN2CCC(c3ccccc3)(c3ccccc3)CC2)[C@H]1c1cccc([N+](=O)[O-])c1
- inhibition [1]: 83.2%
- inhibition [2]: 30.9%
- inhibition [3]: 94.8%
- inhibition [4]: 62.2%
- inhibition [5]: 92%
- inhibition [6]: 83.9%
- inhibition [7]: 75.9%
- inhibition [11]: 27.4%
- inhibition [8]: 98.8%
- inhibition [9]: 90.1%
- inhibition [10]: 51.8%

Structure (SMILES): COc1ccccc1CN[C@H]1C2CCN(CC2)[C@H]1C(c1ccccc1)c1ccccc1
- inhibition [1]: 0.68%
- inhibition [13]: -1.7%
- inhibition [3]: 1.59%
- inhibition [4]: 11.3%
- inhibition [5]: 9.53%
- inhibition [6]: 11.1%
- inhibition [11]: 27.6%
- inhibition [8]: 40.4%
- inhibition [12]: 8.86%
- inhibition [9]: 11.1%

Structure (SMILES): NC[C@@H]1O[C@H](C23CC4CC(CC(C4)C2)C3)Cc2c1ccc(O)c2O
- inhibition [1]: 48.1%
- inhibition [2]: -5.8%
- inhibition [3]: 102%
- inhibition [4]: 24.8%
- inhibition [6]: 3.98%
- inhibition [7]: 43.5%
- inhibition [11]: -6.56%
- inhibition [8]: 38.4%
- inhibition [9]: 85.1%
- inhibition [10]: 82.7%

Structure (SMILES): O=C(Cc1ccc(Cl)c(Cl)c1)N1CCCC[C@H]1CN1CCCC1
- inhibition [1]: 35.7%
- inhibition [2]: 9.74%
- inhibition [3]: 24.5%
- inhibition [4]: 37.3%
- inhibition [5]: 49.6%
- inhibition [6]: 12.3%
- inhibition [7]: 14.8%
- inhibition [11]: -9.98%
- inhibition [8]: 23.8%
- inhibition [9]: 30.3%
- inhibition [10]: -9.99%

Structure (SMILES): N#Cc1ccc2[nH]cc(CCCCN3CCN(c4ccc5oc(C(N)=O)cc5c4)CC3)c2c1
- inhibition [1]: 101%
- inhibition [2]: 1.49%
- inhibition [3]: 76.3%
- inhibition [4]: 31.9%
- inhibition [5]: 62.7%
- inhibition [6]: 75.5%
- inhibition [7]: 80%
- inhibition [11]: 24.6%
- inhibition [8]: 85.8%
- inhibition [9]: 70%
- inhibition [10]: 36.9%
